# Source: patent US10807992B2, “Single enantiomer antiparasitic compounds” (priority 2017, dated 2020)
# Legend:
# Ixodes scapularis = test: In vitro contact activity against adult ticks (coated vial), I. scapularis; settings: for mortality at 0.006 µM: Trial 1, dose 0.006 μM; for mortality at 0.024 µM: Trial 1, dose 0.024 μM; for mortality at 0.098 µM: Trial 1, dose 0.098 μM; for mortality at 0.39 µM: Trial 1, dose 0.39 μM; for mortality at 1.56 µM: Trial 1, dose 1.56 μM; for mortality at 6.25 µM: Trial 1, dose 6.25 μM; for mortality at 25 µM: Trial 1, dose 25 μM; for mortality at 100 µM: Trial 1, dose 100 μM
# Protocol: (§1) Rhipicephalus sanguineus, Dermacentor variabilis, Amblyomma americanum, (Ecto Services, Inc., Henderson, N.C.) and Ixodes scapularis (Oklahoma State University, Stillwater, Okla.) aged between 2-4 weeks post molt were held in an environmental chamber at 24° C., 80% humidity with 12-hour light/dark cycles.
# (§2) For tick assays, vial caps were pre-drilled with a single hole in the center of each cap to allow air exchange. A filter paper (Whatman Grade 540 2.1 cm) was placed in the lid of each vial. An aliquot from each compound stock was added to an acetone/triton solution to achieve the desired top doses for the study. Serial dilutions were conducted from the top dose (i.e. 100 ppm) to achieve the desired titration range for EC50 and EC90 determination. For R. sanguineus, D. variabilis, and A. americanum, the final DMSO concentration in each test vial was 0.5%. For I. scapularis, compounds were solubilized directly in an acetone/triton solution due to I. scapularis' sensitivity to DMSO. A 459 μL aliquot of each compound formulation was transferred to a vial containing a Whatman Grade 540 2.1 cm filter paper. Vials were immediately placed on an unheated roller unit to allow for an even coating of the vial walls. After vials were coated, 41 μL of each compound formulation was added to the filter paper embedded in each vial cap. Each cap was allowed to dry. The vials were loosely capped and allowed to dry for a minimum of four hours in a chemical fume hood.
# (§3) Compounds tested were: the C1 racemate, C1 (R) enantiomer, and the C1 (S) enantiomer. For Trial 3, the C1 (R) enantiomer and the C1 (S) enantiomer were further chiral purified to achieve >99% purity.
# (§4) Ten adult ticks were added to each vial and held at 24° C., 80% humidity with 12-hour light/dark cycles. Adult ticks were assessed for percent mortality at various time points between 2 hours and 48 hours post infestation. Ticks were stimulated on a heated roller unit and evaluated. Ticks showing no movement, or very slow and uncoordinated movement were noted as dead.
# Rhipicephalus sanguineus = test: In vitro contact activity against adult ticks (coated vial), R. sanguineus; settings: for mortality at 0.006 µM: Trial 3, dose 0.006 μM; for mortality at 0.024 µM: Trial 3, dose 0.024 μM; for mortality at 0.098 µM: Trial 3, dose 0.098 μM; for mortality at 0.39 µM: Trial 3, dose 0.39 μM; for mortality at 1.56 µM: Trial 3, dose 1.56 μM; for mortality at 6.25 µM: Trial 3, dose 6.25 μM; for mortality at 25 µM: Trial 3, dose 25 μM; for mortality at 100 µM: Trial 3, dose 100 μM
# Protocol: as §1, §2, §3, §4
structure (smiles),measurement,setting,value
"O=C(CC(F)(F)F)N1CC2(C1)OCc1cc(C3=NS[C@](c4cc(Cl)c(F)c(Cl)c4)(C(F)(F)F)C3)ccc12 [C1 (R) enantiomer, (R)-1-[6-[5-(3,5-dichloro-4-fluoro-phenyl)-5-(trifluoromethyl)-4H-isothiazol-3-yl]spiro[1H-isobenzofuran-3,3′-azetidine]-1′-yl]-3,3,3-trifluoro-propan-1-one]",mortality at 0.006 µM,"Ixodes scapularis; 2 h, Rep1",0%
same,mortality at 0.006 µM,"Ixodes scapularis; 2 h, Rep2",0%
same,mortality at 0.024 µM,"Ixodes scapularis; 2 h, Rep1",0%
same,mortality at 0.024 µM,"Ixodes scapularis; 2 h, Rep2",0%
same,mortality at 0.098 µM,"Ixodes scapularis; 2 h, Rep1",0%
same,mortality at 0.098 µM,"Ixodes scapularis; 2 h, Rep2",0%
same,mortality at 0.39 µM,"Ixodes scapularis; 2 h, Rep1",0%
same,mortality at 0.39 µM,"Ixodes scapularis; 2 h, Rep2",0%
same,mortality at 1.56 µM,"Ixodes scapularis; 2 h, Rep1",0%
same,mortality at 1.56 µM,"Ixodes scapularis; 2 h, Rep2",0%
same,mortality at 6.25 µM,"Ixodes scapularis; 2 h, Rep1",0%
same,mortality at 6.25 µM,"Ixodes scapularis; 2 h, Rep2",0%
same,mortality at 25 µM,"Ixodes scapularis; 2 h, Rep1",0%
same,mortality at 25 µM,"Ixodes scapularis; 2 h, Rep2",0%
same,mortality at 100 µM,"Ixodes scapularis; 2 h, Rep1",0%
same,mortality at 100 µM,"Ixodes scapularis; 2 h, Rep2",0%
same,mortality at 0.006 µM,"Ixodes scapularis; 6 h, Rep1",0%
same,mortality at 0.006 µM,"Ixodes scapularis; 6 h, Rep2",0%
same,mortality at 0.024 µM,"Ixodes scapularis; 6 h, Rep1",0%
same,mortality at 0.024 µM,"Ixodes scapularis; 6 h, Rep2",0%
same,mortality at 0.098 µM,"Ixodes scapularis; 6 h, Rep1",0%
same,mortality at 0.098 µM,"Ixodes scapularis; 6 h, Rep2",0%
same,mortality at 0.39 µM,"Ixodes scapularis; 6 h, Rep1",0%
same,mortality at 0.39 µM,"Ixodes scapularis; 6 h, Rep2",0%
same,mortality at 1.56 µM,"Ixodes scapularis; 6 h, Rep1",0%
same,mortality at 1.56 µM,"Ixodes scapularis; 6 h, Rep2",0%
same,mortality at 6.25 µM,"Ixodes scapularis; 6 h, Rep1",0%
same,mortality at 6.25 µM,"Ixodes scapularis; 6 h, Rep2",0%
same,mortality at 25 µM,"Ixodes scapularis; 6 h, Rep1",0%
same,mortality at 25 µM,"Ixodes scapularis; 6 h, Rep2",0%
same,mortality at 100 µM,"Ixodes scapularis; 6 h, Rep1",0%
same,mortality at 100 µM,"Ixodes scapularis; 6 h, Rep2",0%
same,mortality at 0.006 µM,"Ixodes scapularis; 12 h, Rep1",0%
same,mortality at 0.006 µM,"Ixodes scapularis; 12 h, Rep2",0%
same,mortality at 0.024 µM,"Ixodes scapularis; 12 h, Rep1",0%
same,mortality at 0.024 µM,"Ixodes scapularis; 12 h, Rep2",0%
same,mortality at 0.098 µM,"Ixodes scapularis; 12 h, Rep1",0%
same,mortality at 0.098 µM,"Ixodes scapularis; 12 h, Rep2",0%
same,mortality at 0.39 µM,"Ixodes scapularis; 12 h, Rep1",0%
same,mortality at 0.39 µM,"Ixodes scapularis; 12 h, Rep2",0%
same,mortality at 1.56 µM,"Ixodes scapularis; 12 h, Rep1",0%
same,mortality at 1.56 µM,"Ixodes scapularis; 12 h, Rep2",0%
same,mortality at 6.25 µM,"Ixodes scapularis; 12 h, Rep1",0%
same,mortality at 6.25 µM,"Ixodes scapularis; 12 h, Rep2",0%
same,mortality at 25 µM,"Ixodes scapularis; 12 h, Rep1",0%
same,mortality at 25 µM,"Ixodes scapularis; 12 h, Rep2",0%
same,mortality at 100 µM,"Ixodes scapularis; 12 h, Rep1",0%
same,mortality at 100 µM,"Ixodes scapularis; 12 h, Rep2",0%
same,mortality at 0.006 µM,"Ixodes scapularis; 24 h, Rep1",0%
same,mortality at 0.006 µM,"Ixodes scapularis; 24 h, Rep2",0%
same,mortality at 0.024 µM,"Ixodes scapularis; 24 h, Rep1",0%
same,mortality at 0.024 µM,"Ixodes scapularis; 24 h, Rep2",0%
same,mortality at 0.098 µM,"Ixodes scapularis; 24 h, Rep1",0%
same,mortality at 0.098 µM,"Ixodes scapularis; 24 h, Rep2",0%
same,mortality at 0.39 µM,"Ixodes scapularis; 24 h, Rep1",0%
same,mortality at 0.39 µM,"Ixodes scapularis; 24 h, Rep2",0%
same,mortality at 1.56 µM,"Ixodes scapularis; 24 h, Rep1",0%
same,mortality at 1.56 µM,"Ixodes scapularis; 24 h, Rep2",0%
same,mortality at 6.25 µM,"Ixodes scapularis; 24 h, Rep1",0%
same,mortality at 6.25 µM,"Ixodes scapularis; 24 h, Rep2",0%
same,mortality at 25 µM,"Ixodes scapularis; 24 h, Rep1",0%
same,mortality at 25 µM,"Ixodes scapularis; 24 h, Rep2",0%
same,mortality at 100 µM,"Ixodes scapularis; 24 h, Rep1",20%
same,mortality at 100 µM,"Ixodes scapularis; 24 h, Rep2",0%
same,mortality at 0.006 µM,"Ixodes scapularis; 48 h, Rep1",0%
same,mortality at 0.006 µM,"Ixodes scapularis; 48 h, Rep2",0%
same,mortality at 0.024 µM,"Ixodes scapularis; 48 h, Rep1",0%
same,mortality at 0.024 µM,"Ixodes scapularis; 48 h, Rep2",0%
same,mortality at 0.098 µM,"Ixodes scapularis; 48 h, Rep1",0%
same,mortality at 0.098 µM,"Ixodes scapularis; 48 h, Rep2",0%
same,mortality at 0.39 µM,"Ixodes scapularis; 48 h, Rep1",0%
same,mortality at 0.39 µM,"Ixodes scapularis; 48 h, Rep2",0%
same,mortality at 1.56 µM,"Ixodes scapularis; 48 h, Rep1",0%
same,mortality at 1.56 µM,"Ixodes scapularis; 48 h, Rep2",0%
same,mortality at 6.25 µM,"Ixodes scapularis; 48 h, Rep1",0%
same,mortality at 6.25 µM,"Ixodes scapularis; 48 h, Rep2",0%
same,mortality at 25 µM,"Ixodes scapularis; 48 h, Rep1",10%
same,mortality at 25 µM,"Ixodes scapularis; 48 h, Rep2",30%
same,mortality at 100 µM,"Ixodes scapularis; 48 h, Rep1",50%
same,mortality at 100 µM,"Ixodes scapularis; 48 h, Rep2",30%
same,mortality at 0.006 µM,"Rhipicephalus sanguineus; 2 h, Rep1",0%
same,mortality at 0.006 µM,"Rhipicephalus sanguineus; 2 h, Rep2",0%
same,mortality at 0.024 µM,"Rhipicephalus sanguineus; 2 h, Rep1",0%
same,mortality at 0.024 µM,"Rhipicephalus sanguineus; 2 h, Rep2",0%
same,mortality at 0.098 µM,"Rhipicephalus sanguineus; 2 h, Rep1",0%
same,mortality at 0.098 µM,"Rhipicephalus sanguineus; 2 h, Rep2",0%
same,mortality at 0.39 µM,"Rhipicephalus sanguineus; 2 h, Rep1",0%
same,mortality at 0.39 µM,"Rhipicephalus sanguineus; 2 h, Rep2",0%
same,mortality at 1.56 µM,"Rhipicephalus sanguineus; 2 h, Rep1",0%
same,mortality at 1.56 µM,"Rhipicephalus sanguineus; 2 h, Rep2",0%
same,mortality at 6.25 µM,"Rhipicephalus sanguineus; 2 h, Rep1",0%
same,mortality at 6.25 µM,"Rhipicephalus sanguineus; 2 h, Rep2",0%
same,mortality at 25 µM,"Rhipicephalus sanguineus; 2 h, Rep1",0%
same,mortality at 25 µM,"Rhipicephalus sanguineus; 2 h, Rep2",0%
same,mortality at 100 µM,"Rhipicephalus sanguineus; 2 h, Rep1",0%
same,mortality at 100 µM,"Rhipicephalus sanguineus; 2 h, Rep2",0%
same,mortality at 0.006 µM,"Rhipicephalus sanguineus; 6 h, Rep1",0%
same,mortality at 0.006 µM,"Rhipicephalus sanguineus; 6 h, Rep2",0%
same,mortality at 0.024 µM,"Rhipicephalus sanguineus; 6 h, Rep1",0%
same,mortality at 0.024 µM,"Rhipicephalus sanguineus; 6 h, Rep2",0%
same,mortality at 0.098 µM,"Rhipicephalus sanguineus; 6 h, Rep1",0%
same,mortality at 0.098 µM,"Rhipicephalus sanguineus; 6 h, Rep2",0%
same,mortality at 0.39 µM,"Rhipicephalus sanguineus; 6 h, Rep1",0%
same,mortality at 0.39 µM,"Rhipicephalus sanguineus; 6 h, Rep2",0%
same,mortality at 1.56 µM,"Rhipicephalus sanguineus; 6 h, Rep1",0%
same,mortality at 1.56 µM,"Rhipicephalus sanguineus; 6 h, Rep2",0%
same,mortality at 6.25 µM,"Rhipicephalus sanguineus; 6 h, Rep1",0%
same,mortality at 6.25 µM,"Rhipicephalus sanguineus; 6 h, Rep2",0%
same,mortality at 25 µM,"Rhipicephalus sanguineus; 6 h, Rep1",0%
same,mortality at 25 µM,"Rhipicephalus sanguineus; 6 h, Rep2",0%
same,mortality at 100 µM,"Rhipicephalus sanguineus; 6 h, Rep1",0%
same,mortality at 100 µM,"Rhipicephalus sanguineus; 6 h, Rep2",0%
same,mortality at 0.006 µM,"Rhipicephalus sanguineus; 12 h, Rep1",0%
same,mortality at 0.006 µM,"Rhipicephalus sanguineus; 12 h, Rep2",0%
same,mortality at 0.024 µM,"Rhipicephalus sanguineus; 12 h, Rep1",0%
same,mortality at 0.024 µM,"Rhipicephalus sanguineus; 12 h, Rep2",0%
same,mortality at 0.098 µM,"Rhipicephalus sanguineus; 12 h, Rep1",0%
same,mortality at 0.098 µM,"Rhipicephalus sanguineus; 12 h, Rep2",0%
same,mortality at 0.39 µM,"Rhipicephalus sanguineus; 12 h, Rep1",0%
same,mortality at 0.39 µM,"Rhipicephalus sanguineus; 12 h, Rep2",0%
same,mortality at 1.56 µM,"Rhipicephalus sanguineus; 12 h, Rep1",0%
same,mortality at 1.56 µM,"Rhipicephalus sanguineus; 12 h, Rep2",0%
same,mortality at 6.25 µM,"Rhipicephalus sanguineus; 12 h, Rep1",0%
same,mortality at 6.25 µM,"Rhipicephalus sanguineus; 12 h, Rep2",0%
same,mortality at 25 µM,"Rhipicephalus sanguineus; 12 h, Rep1",0%
same,mortality at 25 µM,"Rhipicephalus sanguineus; 12 h, Rep2",0%
same,mortality at 100 µM,"Rhipicephalus sanguineus; 12 h, Rep1",0%
same,mortality at 100 µM,"Rhipicephalus sanguineus; 12 h, Rep2",0%
